# Results from patent US10774064B2 (Cadent Therapeutics, Inc., priority 2016, dated 2020).
# Target: T1, small-conductance Ca2+-activated K+ channels (SK channels, subtype 2) (Homo sapiens, UniProt Q9H2S1)
# T1 construct: expressed in transfected cells; host or cells: HEK293
# Assay: whole-cell patch-clamp of ionic current through SK2 channels in HEK293 cells (SC100)
# Type: cell-based
# Details: concentration that increases the basal current by 100%; HEK293 cells expressing SK2 channels
# In short: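 Whole-cell patch-clamp recording of current in HEK293 cells expressing SK2 channels. SC100 is the compound concentration that increases basal current by 100%.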
row,SC100,Compound
1,+++ (+++ means <200 nM),"Cc1ccn(-c2nc(NC3CCC(F)(F)CC3)cc(OC3CN(C(=O)C(C)(C)C)C3)n2)n1 [Compound 211, 1-(3-((6-((4,4-difluorocyclohexyl)amino)-2-(3-methyl-1H-pyrazol-1-yl)pyrimidin-4-yl)oxy)azetidin-1-yl)-2,2-dimethylpropan-1-one]"
2,+ (+ means >1 uM),"Cc1ccn(-c2nc(NC3CCC(F)(F)CC3)cc(N3CC(C)(O)C3)n2)n1 [Compound 140, 1-(6-((4,4-difluorocyclohexyl)amino)-2-(3-methyl-1H-pyrazol-1-yl)pyrimidin-4-yl)-3-methylazetidin-3-ol]"
3,++ (++ means 200 nM-1000 nM),"CC(=O)NCc1cc(NC2CCC(F)(F)CC2)nc(-n2ccc(C(F)F)n2)c1 [Compound 301, N-((2-((4,4-difluorocyclohexyl)amino)-6-(3-(difluoromethyl)-1H-pyrazol-1-yl)pyridin-4-yl)methyl)acetamide]"
4,+ (+ means >1 uM),"Cc1cc(NC2CCC(F)(F)CC2)nc(-n2cc(C)c(CO)n2)n1 [Compound 236, (1-(4-((4,4-difluorocyclohexyl)amino)-6-methylpyrimidin-2-yl)-4-methyl-1H-pyrazol-3-yl)methanol]"
5,++ (++ means 200 nM-1000 nM),"Cc1cc(C)n(-c2cc(N(C)C3COC3)cc(NC3CCC(F)(F)CC3)n2)n1 [Compound 238, N2-(4,4-difluorocyclohexyl)-6-(3,5-dimethyl-1H-pyrazol-1-yl)-N4-methyl-N4-(oxetan-3-yl)pyridine-2,4-diamine]"
6,++ (++ means 200 nM-1000 nM),"CC(=O)NCc1cc(NC2CCC(F)(F)CC2)nc(-n2ccc(CF)n2)c1 [Compound 312, N-((2-((4,4-difluorocyclohexyl)amino)-6-(3-(fluoromethyl)-1H-pyrazol-1-yl)pyridin-4-yl)methyl)acetamide]"
7,+ (+ means >1 uM),"Cc1cc(C)n(-c2nc(NC3CCC(F)(F)CC3)cc(NC3CCCN(C)C3=O)n2)n1 (centres unmarked) [Compound 133, 3-((6-((4,4-difluorocyclohexyl)amino)-2-(3,5-dimethyl-1H-pyrazol-1-yl)pyrimidin-4-yl)amino)-1-methylpiperidin-2-one]"
8,++ (++ means 200 nM-1000 nM),"CCc1cc(-n2nc(C)cc2C)nc(NC2CCC(F)(F)CC2)n1 [Compound 169, N-(4,4-difluorocyclohexyl)-4-(3,5-dimethyl-1H-pyrazol-1-yl)-6-ethylpyrimidin-2-amine]"
9,++ (++ means 200 nM-1000 nM),"Cc1cc(C)n(-c2cc(NCc3cnnn3C)cc(NC3CCC(F)(F)CC3)n2)n1 [Compound 250, N2-(4,4-difluorocyclohexyl)-6-(3,5-dimethyl-1H-pyrazol-1-yl)-N4-((1-methyl-1H-1,2,3-triazol-5-yl)methyl)pyridine-2,4-diamine]"
10,+ (+ means >1 uM),"Cc1cc(C)n(-c2nc(NC3CCC(F)(F)C3)cc(C(C)O)n2)n1 (centres unmarked) [Compound 225, 1-(6-((3,3-difluorocyclopentyl)amino)-2-(3,5-dimethyl-1H-pyrazol-1-yl)pyrimidin-4-yl)ethan-1-ol]"
11,+ (+ means >1 uM),"Cc1ccn(-c2nc(NC3CCC(F)(F)CC3)cc(C3COCCC3O)n2)n1 (centres unmarked) [Compound 232, 3-(6-((4,4-difluorocyclohexyl)amino)-2-(3-methyl-1H-pyrazol-1-yl)pyrimidin-4-yl)tetrahydro-2H-pyran-4-ol]"
12,+ (+ means >1 uM),"Cc1cc(C)n(-c2cc(NC3CCN(C)C3=O)cc(NC3CCC(F)(F)CC3)n2)n1 (racemic) [Compound 135, 3-((2-((4,4-difluorocyclohexyl)amino)-6-(3,5-dimethyl-1H-pyrazol-1-yl)pyridin-4-yl)amino)-1-methylpyrrolidin-2-one]"
13,+ (+ means >1 uM),"Cc1ccn(-c2nc(NC3CCC(F)(F)CC3)cc(C3COCCC3(F)F)n2)n1 (centres unmarked) [Compound 242, N-(4,4-difluorocyclohexyl)-6-(4,4-difluorotetrahydro-2H-pyran-3-yl)-2-(3-methyl-1H-pyrazol-1-yl)pyrimidin-4-amine]"

# Same assay, conditions: whole-cell patch-clamp, HEK293 cells expressing SK2 channels; concentration that increases the basal current by 100%
row,SC100 (μM),Compound
1,+ (+ means >1 uM),"Cc1csc(-c2cnc(NC3CCC(F)(F)CC3)c(C)n2)n1 [IN11079-047-P1, N-(4,4-difluorocyclohexyl)-3-methyl-5-(4-methylthiazol-2-yl) pyrazin-2-amine]"
2,++ (++ means 200 nM-1000 nM),"Cc1ccn(-c2cc(CF)cc(NC3CCC(F)(F)CC3)n2)n1 [NSSy5829, N-(4,4-difluorocyclohexyl)-4-(fluoromethyl)-6-(3-methyl-1H-pyrazol-1-yl)pyridin-2-amine]"
3,++ (++ means 200 nM-1000 nM),Cc1csc(-c2nc(NC3CCC(F)(F)CC3)cc(N(C)C)n2)n1 [IN11055-046-P1]
4,++ (++ means 200 nM-1000 nM),Cc1csc(-c2nc(NC3CCC(F)(F)CC3)cc(N3CC4CC3CO4)n2)n1 (centres unmarked) [NSSy6116]
5,+ (+ means >1 uM),COC(=O)N1CC(Oc2cc(NC3CCC(F)(F)CC3)nc(-c3nc(C)no3)c2)C1 [NSSy5959]
6,+ (+ means >1 uM),COc1cc(NC2CCCCC2)nc(-n2nc(C)cc2C)n1 [IN11055-044-P1]
7,+ (+ means >1 uM),"Cc1csc(-c2nc(NC3CCC(F)(F)CC3)cc(=O)n2CC#N)n1 [IN11196-007-P2, 2-(4-((4,4-difluorocyclohexyl)amino)-2-(4-methylthiazol-2-yl)-6-oxopyrimidin-1(6H)-yl)acetonitrile]"
8,++ (++ means 200 nM-1000 nM),"Cc1csc(-c2cc(CN)cc(NC3CCC(F)(F)CC3)n2)n1 [IN11133-049-P1, 4-(aminomethyl)-N-(4,4-difluorocyclohexyl)-6-(4-methylthiazol-2-yl)pyridin-2-amine]"
9,+ (+ means >1 uM),COC(C)c1cc(-n2ccc(C)n2)nc(NC2CCC(F)(F)CC2)n1 (centres unmarked) [NSSy6651]
10,+ (+ means >1 uM),"Cc1csc(N2C[C@@H](Nc3ccc([N+](=O)[O-])cc3)C[C@H](N3CCOCC3)C2)n1 [NSSy6342, (3S,5S)-1-(4-methylthiazol-2-yl)-5-morpholino-N-(4-nitrophenyl)piperidin-3-amine]"
11,+ (+ means >1 uM),FC1(F)CCC(Nc2cc(N3CCOCC3)nc(-n3ccc(-c4ccccc4)n3)n2)CC1 [NSSy7034]
12,+ (+ means >1 uM),Cc1cc(C)n(-c2nc(NC3CCC(F)(F)CC3)cc(S(C)(=O)=O)n2)n1 [IN11067-061-P1]
13,+ (+ means >1 uM),"Cc1cc(NC2CCC(F)(F)CC2)nc(Cn2ccc(C)n2)n1 [IN11273-015-P1, N-(4,4-difluorocyclohexyl)-6-methyl-2-((3-methyl-1H-pyrazol-1-yl)methyl)pyrimidin-4-amine]"
14,++ (++ means 200 nM-1000 nM),Cc1csc(-c2nc(NC3CCC(F)(F)CC3)cc(OC3CCS(=O)(=O)CC3)n2)n1 [NSSy6253]
15,+ (+ means >1 uM),Cc1ccn(-c2nc(NC3CCC(F)(F)CC3)cc(OCCC#N)n2)n1 [IN11030-095-P1]
16,+ (+ means >1 uM),COCC1COCCN1c1cc(NC2CCC(F)(F)CC2)nc(-c2nc(C)cs2)n1 (centres unmarked) [IN10881-099-P1]

row,SC100 (μM),Compound
1,++ (++ means 200 nM-1000 nM),"OCc1cc(NC2CCC(F)(F)CC2)nc(-c2nc(C3CC3)cs2)n1 [IN11147-082-P1, (2-(4-cyclopropylthiazol-2-yl)-6-((4,4-difluorocyclohexyl)amino)pyrimidin-4-yl) methanol]"
2,+++ (+++ means <200 nM),Cc1csc(-c2nc(NC3CCC(F)(F)CC3)cc(N3CCOC(C)(C)C3)n2)n1 [IN10864-043-P1]
3,+ (+ means >1 uM),Cc1ccn(-c2nc(NC(C)(C)C)cc(N3CCOC(CO)C3)n2)n1 (centres unmarked) [IN10882-083-P1]
4,+ (+ means >1 uM),COc1c(NC2CCC(F)(F)CC2)nc(-c2nc(C)cs2)nc1OCCO [IN11111-023-P1]
5,+ (+ means >1 uM),"Cc1cc(NC2CCC(F)(F)CC2)nc(-n2ccc(C(=O)OC(C)C)n2)n1 [IN11251-020-P1, isopropyl 1-(4-((4,4-difluorocyclohexyl)amino)-6-methylpyrimidin-2-yl)-1H-pyrazole-3-carboxylate]"
6,+ (+ means >1 uM),COc1cc(N[C@@H]2CCCC[C@H]2F)nc(-c2nc(C)cs2)n1 [IN11140-096-P1]
7,+ (+ means >1 uM),Cc1cc(C)n(-c2cc(N3CC4CCC(C3)O4)nc(NC3CCC(F)(F)CC3)n2)n1 [NSSy6644]
8,+ (+ means >1 uM),"COC(=O)NCCOc1c(NC2CCC(F)(F)CC2)nc(-c2nc(C)cs2)[nH]c1=O [IN11125-065-P1, methyl (2-((4-((4,4-difluorocyclohexyl)amino)-6-hydroxy-2-(4-methylthiazol-2-yl)pyrimidin-5-yl)oxy)ethyl)carbamate]"
9,+ (+ means >1 uM),"Cc1csc(-c2nc(NC3CCCCC3(F)F)cc(C(C)O)n2)n1 (centres unmarked) [IN11140-083-P1, 1-(6-((2,2-difluorocyclohexyl)amino)-2-(4-methylthiazol-2-yl)pyrimidin-4-yl) ethan-1-ol]"
10,+ (+ means >1 uM),COc1ccn(-c2cc(N3CCN(C(C)=O)CC3)nc(NC3CCC(F)(F)CC3)n2)n1 [NSSy6936]
11,++ (++ means 200 nM-1000 nM),Cc1csc(-c2nc(NC3CCC(F)(F)CC3)cc(N3CCC(F)CC3)n2)n1 [IN10864-33.P1]
12,++ (++ means 200 nM-1000 nM),Cc1ccn(-c2nc(NC3CC=CCC3)cc(OC3CN(C(=O)C(C)C)C3)n2)n1 (centres unmarked) [NSSy5762]
13,+++ (+++ means <200 nM),"CC(=O)N1CCC(O)(c2cc(NC3CCC(F)(F)CC3)nc(-c3nc(C)cs3)c2)CC1 [NSSy6436, 1-(4-(2-((4,4-difluorocyclohexyl)amino)-6-(4-methylthiazol-2-yl)pyridin-4-yl)-4-hydroxypiperidin-1-yl)ethan-1-one]"
14,+ (+ means >1 uM),COc1cc(NC2CCOCC2)nc(-c2nc(C)cs2)n1 [IN11106-004-P1]
15,++ (++ means 200 nM-1000 nM),"Cc1csc(-c2cc(C(O)Cc3nnco3)cc(NC3CCC(F)(F)CC3)n2)n1 (centres unmarked) [NSSy6782, 1-(2-((4,4-difluorocyclohexyl)amino)-6-(4-methylthiazol-2-yl)pyridin-4-yl)-2-(1,3,4-oxadiazol-2-yl)ethan-1-ol]"
